The record followed here is patent US11103619B2, “Anticalcification treatment for impantable biological tissues using calcitonin” (priority 2018, dated 2021).

The assay deals with Porcine aortic leaflets implanted subdermally in male Wistar rats. Briefly: Post-implantation calcium content of treated porcine aortic leaflets implanted subdermally in rats for 21 days, measured by atomic absorption. Type of assay: in vivo. Conditions: for Cumulative results of post-implantation Ca concentration: mean ± STDEV, p < 0.05 vs Group I (Glut only, 126.95 ± 12.97); for Post implantation Ca Content: explanted after 21 days, mean. Here is the method: In one embodiment, the method comprises placing the biological tissue for fixation and preservation in a buffered glutaraldehyde (Glut) solution 0.5% at pH 7.4, adding salmon synthetic calcitonin (CT), such as Miacalcic® of Novartis Hellas A.B.E. In this experiment, two different concentrations of calcitonin were tested. One with 1 unit/100 ml (1%) and the other with 10 units/100 ml (10%). The first fixation process lasted one hour, at a pressure between 2-3 mmHg and subsequently the biological tissues were embedded in an accordingly new solution for one week.
Porcine aortic leaflets were selected as fresh tissue from a local slaughter house and were cut radially in three parts. Following harvesting, the biological tissue is rinsed and maintained in cold Hepa saline solution (temperature between 4°-12° C.) between two to six hours.
Three groups of tissue were created. Group I (Glut only), Group II (Glut with 1% CT) and Group III (Glut with 10% CT). All tissues were then implanted subdermally in three sets of 8 (Group I), 9 (Group II) and 9 (Group III) male Wistar rats of 12 days old (Center for Experimental Surgery, Biomedical Research Foundation of the Academy of Athens). […] All tissues were rinsed three times in normal saline solution for 10 minutes each time before implantation. Each rat received four fragments of tissue at the dorsum, through four separate incisions (two at each side) each of 1 cm long, with a technique we have previously described elsewhere (Agathos E A et al: “In vivo calcification of glutaraldehyde fixed cardiac valve and pericardium of Phoca Groenlandica”: ASAIO 57(4):328-332, July/August 2011).
21 days later the rats were euthanized by inhalation of CO2. All procedures were approved by the Animal Care Committee of the Academy of Athens and performed according to the Guide for the Care and Use of Laboratory Animals prepared by the Institutes of Laboratory Animal Resources, National Research Council and published by the National Academy Press, revised 1996 (NIH publication No. 85-23). The tissues were retrieved and after rinsing with distilled water 3 times, were lyophilized at −40° C. at high vacuum pressure of approximately […] for 16 hours. The calcium content was then measured with flat atomic absorption technique.
For statistical analysis, the commercially available software package ANOVA Origin 8.0 for Windows (OriginLab Corporation, Northampton, Mass., USA) was used. P values of 0.05 or less were defined as a statistically significant difference.

As for salmon synthetic calcitonin [CT], the “Ca concentration accumulation in the explanted tissues (fold, post vs pre implantation)” value (Group II (1% CT)) turned out to be 5.16 × and the “Ca concentration accumulation in the explanted tissues (fold, post vs pre implantation)” value (Group III (10% CT)) came out at 9.43 ×. The “Cumulative results of post-implantation Ca concentration” value was found to be 24.69 ± 2.71 (Group II (1% CT), ns vs Group III) and 27.16 ± 2.95 (Group III (10% CT), ns vs Group II). For the same substance, the “Post implantation Ca Content” value runs as follows: (Group II: Glut with 1% CT) 24.69 mg Ca/gr tissue; (Group III: Glut with 10% CT) 27.16 mg Ca/gr tissue.
